The record followed here is PMC5143673 (Innate immunity, 2016).

In data set [1] the test system is neutrophils.
Data set [2] concerns the target N-HisTag containing ApoA1 (NH-ApoA1) (UniProt P02647). The experiment in a line: SPR. For orientation: In SPR one partner is held on a chip, and binding of the other changes the refractive index at the surface.

Non-standard residues stand in square brackets, D forms with d. No end group written: not given here. hCit = NC(=O)NCCCC[C@H](N)C(=O)O

UniProt P02647, sequence (P02647 19-267): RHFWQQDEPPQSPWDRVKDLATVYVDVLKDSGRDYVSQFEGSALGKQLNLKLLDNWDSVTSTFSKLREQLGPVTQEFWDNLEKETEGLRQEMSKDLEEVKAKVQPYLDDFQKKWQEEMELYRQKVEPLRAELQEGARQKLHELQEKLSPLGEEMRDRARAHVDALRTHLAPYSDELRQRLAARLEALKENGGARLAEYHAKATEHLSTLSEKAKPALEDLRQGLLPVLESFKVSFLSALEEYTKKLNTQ

As to “LLGDFFRKSKEKIGKEFKRIVQRIKDFLRNLVPRTES [LL-37]”, in data set [1], the “capacity to lyse neutrophils and erythrocytes” value was “ability of LL-37^C8 and LL-37^C12,15 to lyse neutrophils and erythrocytes was different”.

B1: LL-37^C12,15 (LL-37 carbamylated on Lys-12 and Lys-15) (peptide)
peptide: LLGDFFRKSKE[hCit]IG[hCit]EFKRIVQRIKDFLRNLVPRTES
B1 gave a fold lower affinity than native LL-37 in data set [2] of 3 fold.
